Measured values from patent publication US20080234262A1 (Wyeth, priority 2007, published 2008).
Read-outs that look alike come from different tables or passages of the source.

Key:
Human mTOR (FLAG-TOR) = target: T1, Human mTOR (FLAG-TOR) (Homo sapiens, UniProt P42345); test: Human mTOR kinase assay with purified enzyme, DELFIA format; type: biochemical
T1 construct: FLAG

PI3K = PI3K (Homo sapiens, UniProt P42336); test: Fluorescence polarization assay for PI3K; type: biochemical; conditions: PI3Kα, read-out: PI3Kα IC50;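 further: PI3K kinase reaction on PIP2 with ATP, 30-60 min, product sensed by GST-GRP with red probe in fluorescence polarization (mP), controls without enzyme and at zero time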
PI3K, sequence (P42336 whole entry): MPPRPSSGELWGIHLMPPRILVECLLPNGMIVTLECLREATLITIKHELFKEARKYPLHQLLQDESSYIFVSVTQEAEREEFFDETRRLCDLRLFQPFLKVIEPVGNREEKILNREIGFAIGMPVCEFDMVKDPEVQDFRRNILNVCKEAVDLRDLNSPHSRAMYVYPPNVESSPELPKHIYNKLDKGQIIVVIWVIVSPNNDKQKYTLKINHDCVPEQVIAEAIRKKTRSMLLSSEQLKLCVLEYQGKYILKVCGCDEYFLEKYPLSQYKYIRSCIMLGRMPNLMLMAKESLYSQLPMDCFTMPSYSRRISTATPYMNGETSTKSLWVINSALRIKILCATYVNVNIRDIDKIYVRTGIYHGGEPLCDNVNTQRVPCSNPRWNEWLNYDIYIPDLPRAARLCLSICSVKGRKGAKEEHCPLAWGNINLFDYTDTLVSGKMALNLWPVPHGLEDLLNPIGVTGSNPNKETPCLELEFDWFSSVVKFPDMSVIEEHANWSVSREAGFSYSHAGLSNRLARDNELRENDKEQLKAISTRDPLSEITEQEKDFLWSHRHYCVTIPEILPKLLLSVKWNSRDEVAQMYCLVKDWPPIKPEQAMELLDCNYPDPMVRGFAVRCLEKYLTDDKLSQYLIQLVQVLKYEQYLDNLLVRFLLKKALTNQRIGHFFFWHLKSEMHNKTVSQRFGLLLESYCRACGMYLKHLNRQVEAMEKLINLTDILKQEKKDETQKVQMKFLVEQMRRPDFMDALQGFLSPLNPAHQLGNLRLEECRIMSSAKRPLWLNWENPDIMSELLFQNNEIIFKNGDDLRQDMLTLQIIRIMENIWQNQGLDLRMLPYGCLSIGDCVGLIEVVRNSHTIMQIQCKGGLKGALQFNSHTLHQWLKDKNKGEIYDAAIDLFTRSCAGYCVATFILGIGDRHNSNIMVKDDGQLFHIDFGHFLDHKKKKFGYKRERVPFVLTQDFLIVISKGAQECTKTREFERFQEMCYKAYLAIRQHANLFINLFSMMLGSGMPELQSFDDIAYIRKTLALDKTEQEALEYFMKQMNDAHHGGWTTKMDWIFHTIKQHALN
PI3K, sequence (P27986 whole entry partner): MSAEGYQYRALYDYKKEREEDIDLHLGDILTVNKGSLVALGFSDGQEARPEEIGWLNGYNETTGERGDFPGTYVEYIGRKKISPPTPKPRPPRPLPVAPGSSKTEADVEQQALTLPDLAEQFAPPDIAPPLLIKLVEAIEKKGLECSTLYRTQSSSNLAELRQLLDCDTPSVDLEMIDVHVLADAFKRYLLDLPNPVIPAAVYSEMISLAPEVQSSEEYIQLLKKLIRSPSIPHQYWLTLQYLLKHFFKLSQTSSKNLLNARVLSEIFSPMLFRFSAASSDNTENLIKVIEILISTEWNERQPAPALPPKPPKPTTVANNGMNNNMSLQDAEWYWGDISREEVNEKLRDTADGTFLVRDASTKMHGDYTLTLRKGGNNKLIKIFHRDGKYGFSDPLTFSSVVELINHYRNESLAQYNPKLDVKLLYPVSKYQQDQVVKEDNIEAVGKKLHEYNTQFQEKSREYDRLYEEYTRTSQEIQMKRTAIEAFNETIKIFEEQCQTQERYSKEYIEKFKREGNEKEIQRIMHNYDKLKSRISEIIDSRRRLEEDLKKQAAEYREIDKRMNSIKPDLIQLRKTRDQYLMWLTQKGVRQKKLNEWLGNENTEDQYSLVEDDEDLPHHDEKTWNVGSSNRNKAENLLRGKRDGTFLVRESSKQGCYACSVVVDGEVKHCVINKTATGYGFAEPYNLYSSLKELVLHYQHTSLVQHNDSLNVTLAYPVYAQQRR

prostate line LNCap = test: In vitro cell culture growth assay (MTS), LNCap; type: cell-based, human; conditions: LNCap cells, three days after drug treatment;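 further: viable cell density read by absorbance at 490 nm, growth expressed as percent of vehicle-treated cells on the same plate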
breast line MDA468 = test: In vitro cell culture growth assay (MTS), MDA468; type: cell-based, human; conditions: MDA468 cells, three days after drug treatment
Outline: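 Steps: plate cells; add inhibitors the next day; incubate 3 days; add MTS dye, which viable cells convert metabolically; measure absorbance at 490 nm; calculate percent of control growth relative to vehicle-treated cells in the same plate.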

Compound	IC50 (PI3K) [nM]	IC50 (PI3K; listed as 74) [nM]	IC50 (prostate line LNCap; Homo sapiens, LNCaP, 72 h) [nM]	IC50 (Human mTOR (FLAG-TOR)) [nM]	IC50 (breast line MDA468; Homo sapiens, 72 h) [nM]	IC50 (prostate line LNCap) [nM]	IC50 (breast line MDA468) [nM]
1-(4-{4-(2-hydroxymorpholin-4-yl)-1-[1-(pyridin-3-ylmethyl)piperidin-4-yl]-1H-pyrazolo[3,4-d]pyrimidin-6-yl}phenyl)-3-methylurea [Example 61]	9130			300			
1-{4-[1-(1-Benzyl-piperidin-4-yl)-4-morpholin-4-yl-1H-pyrazolo[3,4-d]pyrimidin-6-yl]-phenyl}-3-methyl-thiourea [Example 34]	1110			1200			
3-(4-Morpholin-4-yl-1-piperidin-4-yl-1H-pyrazolo[3,4-d]pyrimidin-6-yl)-phenol [Example 5]	440			240			
3-[4-(1,4-oxazepan-4-yl)-1-phenyl-1H-pyrazolo[3,4-d ]pyrimidin-6-yl]phenol [Example 75]	10000			≥ 20000			
4-(4-morpholin-4-yl-1-phenyl-1H-pyrazolo[3,4-d]pyrimidin-6-yl)aniline [Example 10]				215			
4-{6-[4-(2,3-Dimethyl-isothioureido)-phenyl]-4-morpholin-4-yl-pyrazolo[3,4-d]pyrimidin-1-yl}-piperidine-1-carboxylic acid isopropyl ester [Example 57]	1700			118			
O=C(Nc1ccccc1)Nc1cc(F)c(-c2nc(N3CCOCC3)c3cnn(C4CCN(C(=O)c5cccnc5)CC4)c3n2)cc1F [Example 469, 1-(2,5-difluoro-4-{4-morpholin-4-yl-1-[1-(pyridin-3-ylcarbonyl)piperidin-4-yl]-1H-pyrazolo[3,4-d]pyrimidin-6-yl}phenyl)-3-phenylurea]	173		170		600		
CNC(=O)Nc1ccc(-c2nc(N3CCOCC3)c3cnn(C4CCN(CC(F)(F)F)CC4)c3n2)cc1 [Example 470, 1-methyl-3-(4-{4-morpholin-4-yl-1-[1-(2,2,2-trifluoroethyl)piperidin-4-yl]-1H-pyrazolo[3,4-d]pyrimidin-6-yl}phenyl)urea]	187		56		300		
CNC(=O)Nc1ccc(-c2nc(N3CCOCC3)c3cnn(C4CCN(C(=O)N(C)C)CC4)c3n2)cc1 [Example 473, N,N-dimethyl-4-(6-{4-[(methylcarbamoyl)amino]phenyl}-4-morpholin-4-yl-1H-pyrazolo[3,4-d]pyrimidin-1-yl)piperidine-1-carboxamide]	209		200		500		
CNC(=O)Nc1ccc(-c2nc(N3CCOCC3)c3cnn(C4CCN(C(=O)C(C)C)CC4)c3n2)cc1 [Example 475, 1-{4-[1-(1-isobutyrylpiperidin-4-yl)-4-morpholin-4-yl-1H-pyrazolo[3,4-d]pyrimidin-6-yl]phenyl}-3-methylurea]	148		150		300		
methyl [4-(1-{1-[(6-fluoropyridin-3-yl)methyl]piperidin-4-yl}-4-morpholin-4-yl-1H-pyrazolo[3,4-d]pyrimidin-6-yl) phenyl]carbamate [Compound 453]	1200					900	6000
methyl [4-(1-{1-[(6-fluoropyridin-3-yl)methyl]piperidin-4-yl}-4-morpholin-4-yl-1H-pyrazolo[3,4-d]pyrimidin-6-yl)phenyl]carbamate [Compound 697]	1200					900	6000

Further lines, with some results ahead:

IC50 (PI3K) [nM]	IC50 (PI3K; listed as 74) [nM]	IC50 (prostate line LNCap; Homo sapiens, LNCaP, 72 h) [nM]	Compound	IC50 (Human mTOR (FLAG-TOR)) [nM]	IC50 (breast line MDA468; Homo sapiens, 72 h) [nM]	IC50 (prostate line LNCap) [nM]	IC50 (breast line MDA468) [nM]
1750			1-(2-Fluoro-ethyl)-3-(4-{1-[1-(4-hydroxy-butyl)-piperidin-4-yl]-4-morpholin-4-yl-1H-pyrazolo[3,4-d]pyrimidin-6-yl}-phenyl)-urea [Example 54]	29			
1430			1-Ethyl-3-(4-{1-[1-(4-hydroxy-butyl)-piperidin-4-yl]-4-morpholin-4-yl-1H-pyrazolo[3,4-d]pyrimidin-6-yl}-phenyl)-urea [Example 52]	11.5			
8770	8570		4-(6-(3-hydroxyphenyl)-1-phenyl-1H-pyrazolo[3,4-d]pyrimidin-4-yl)morpholin-3-one [Example 73]	380			
8200			5-[1-(1-Benzyl-piperidin-4-yl)-4-morpholin-4-yl-1H-pyrazolo[3,4-d]pyrimidin-6-yl]-1,3-dihydro-benzoimidazol-2-one [Example 35]	130			
2980		1200	O=C(NCCF)Nc1cc(F)c(-c2nc(N3CCOCC3)c3cnn(C4CCN(C(=O)c5cccnc5)CC4)c3n2)cc1F [Example 467, 1-(2,5-difluoro-4-{4-morpholin-4-yl-1-[1-(pyridin-3-ylcarbonyl)piperidin-4-yl]-1H-pyrazolo[3,4-d]pyrimidin-6-yl}phenyl)-3-(2-fluoroethyl)urea]		2200		
225		800	CNC(=O)Nc1ccc(-c2nc(N3CCOCC3)c3cnn(C4CCN(C(C)=O)CC4)c3n2)cc1 [Example 472, 1-{4-[1-(1-acetylpiperidin-4-yl)-4-morpholin-4-yl-1H-pyrazolo[3,4-d]pyrimidin-6-yl]phenyl}-3-methylurea]		1200		
287		1010	CNC(=O)Nc1ccc(-c2nc(N3CCOCC3)c3cnn(C4CCN(C(=O)COC)CC4)c3n2)cc1 [Example 474, 1-(4-{1-[1-(methoxyacetyl)piperidin-4-yl]-4-morpholin-4-yl-1H-pyrazolo[3,4-d]pyrimidin-6-yl}phenyl)-3-methylurea]		1400		
149		2200	CNC(=O)Nc1ccc(-c2nc(N3CCOCC3)c3cnn(C4CCN(C(=O)NC)CC4)c3n2)cc1 [Example 477, N-methyl-4-(6-{4-[(methylcarbamoyl)amino]phenyl}-4-morpholin-4-yl-1H-pyrazolo[3,4-d]pyrimidin-1-yl)piperidine-1-carboxamide]		1800		
